Experimental data published in US20210379085A1, “HALOGENATED SALICYLANILIDES FOR TREATING THE SYMPTOMS OF DERMATITIS” (Union Therapeutics A/S, priority 2018, published 2021).

Tests used:
Format in all cases: in vivo, human
[1] = system: skin barrier and inflammation biomarkers in lesional skin biopsies; test: Microarray (Affymetrix U133A Plus 2) biomarker gene expression in lesional skin biopsies (Example 3)
Protocol: (§1) Patients received topical applications of a niclosamide 2% composition and vehicle once daily for 3 weeks, followed by a 1-week follow up period. Topical niclosamide 2% and vehicle was applied on two separate target lesions of atopic dermatitis (lesions of at least 3×3-cm that are at least 2 cm apart, excluding the face, scalp, genitals, hands, and feet). The application areas (5×5-cm) were randomized (1:1) to once daily application of niclosamide 2% or vehicle at 5 mg/cm^2 without occlusion 6 days per week. Patients came to the study site for all study product application for a total of 3 weeks.
(§2) Skin barrier and inflammation biomarker levels were determined from lesional skin biopsies from application areas.
(§3) The skin biopsy samples were analysed by immunohistochemistry (IHC), and by gene expression studies by RT-PCR using TaqMan Low Density Array (TLDA), and by microarray using Affymetrix U133A Plus 2. The immunohistochemistry (IHC) was used to analyse cell biomarkers. The methodologies as disclosed by Guttman-Yassky et al, “Major differences in inflammatory dendritic cells and their products distinguish atopic dermatitis from psoriasis”, The Journal of Allergy and Clinical Immunology, vol. 119, issue 5, pages 1210-1217, 2007, were followed except for that U133A Plus 2-set Gene Chip probe arrays was used instead of U95A-set Gene Chip probe arrays.
Experimental design: The hybridization strategy was in concordance with experimental design principles, by for example keeping all samples from the same patient in the same date, and always include samples from every treatment arm/group.
Quality Control and Pre-processing: Quality control of microarray chips were carried out using standard QC metrics and R package microarray Quality Control. Expression measures were obtained using GCRMA algorithm (Wu & Irizarry, 2004). Several visual and modelling techniques were used to elucidate if batch effect existed. Principal Component analysis plots were used to detect if any evident batch effect existed. If such batch effects were found, they were adjusted using Combat, an empirical Bayes method for adjusting data for batch effects that is robust to outliers in small sample sizes (Johnson, Li, & Rabinovic, 2007). The implementation of Combat by package sva was used.
Probe-sets with at least 5% samples with expression larger than 3 (in log 2-scale) were kept for further analysis. Expression values were modelled using mixed-effect models with fixed factors Visit and Treatment Area and a random effect for each patient. Fold changes for the comparisons of interest were estimated and hypothesis testing was conducted on such comparisons using contrasts under the general framework for linear models in limma package. The inter-replicate correlation was computed by Duplicate Correlation function and the linear model was estimated by ImFit. P-values from the moderated (paired) t-test were adjusted for multiple hypotheses using the Benjamini-Hochberg procedure, which controls for FDR.

[2] = system: lesional skin of patients with moderate atopic dermatitis; test: Skin thickness in lesional skin biopsies, Phase II atopic dermatitis study (Example 3); settings: Day 22, compared to baseline and compared to vehicle; topical niclosamide 2% once daily 3 weeks
Protocol: as §1
Three skin biopsies were collected in all patients (one from lesional skin at baseline, pre-dosing at Day 1, and two from lesional skin at Day 22 (one where topical niclosamide 2% had been applied and one where the vehicle had been applied). The lesional skin biopsies were analysed for skin thickness and inflammation biomarkers.

[3] = system: immune cell infiltrates (CD3, langerin, CD11c, FceR1) in lesional skin; test: Immunohistochemistry (IHC) of cell biomarkers in lesional skin biopsies (Example 3); settings: topical 2% niclosamide
Protocol: as §1, §2, §3

[4] = Day 22, topical administration of 2% niclosamide, p<0.05
[5] = fold change, Day 22, vehicle-treated vs niclosamide-treated lesion, topical niclosamide 2% once daily 3 weeks, AD lesional skin
[6] = fold change, Day 22 vs baseline, topical niclosamide 2% once daily 3 weeks, AD lesional skin
[7] = Day 22 compared to baseline (pre-dosing at Day 1)

SMILES: O=C(Nc1ccc([N+](=O)[O-])cc1Cl)c1cc(Cl)ccc1O [Niclosamide, niclosamide]
- CXCL1 downregulation, 2% niclosamide compared to vehicle (microarray values) [1, 4]: −2.10
- PI3 downregulation, 2% niclosamide compared to vehicle (microarray values) [1, 4]: −1.87
- S100A9 downregulation, 2% niclosamide compared to vehicle (microarray values) [1, 4]: −1.88
- S100A12 downregulation, 2% niclosamide compared to vehicle (microarray values) [1, 4]: −2.30
- ACOT2 expression, Vehicle vs. Niclosamide (Microarray) [1, 5]: −1.35
- ACOX2 expression, Vehicle vs. Niclosamide (Microarray) [1, 5]: −1.40
- CCL2 expression, Vehicle vs. Niclosamide (Microarray) [1, 5]: 1.56
- CCL13 expression, Vehicle vs. Niclosamide (Microarray) [1, 5]: 1.32
- CCL18 expression, Vehicle vs. Niclosamide (Microarray) [1, 5]: 1.66
- CCL20 expression, Vehicle vs. Niclosamide (Microarray) [1, 5]: 2.00
- CCL23 expression, Vehicle vs. Niclosamide (Microarray) [1, 5]: 1.63
- CCL26 expression, Vehicle vs. Niclosamide (Microarray) [1, 5]: 1.69
- CCR1 expression, Vehicle vs. Niclosamide (Microarray) [1, 5]: 1.55
- CCR6 expression, Vehicle vs. Niclosamide (Microarray) [1, 5]: 1.31
- CXCL1 expression, Vehicle vs. Niclosamide (Microarray) [1, 5]: 2.10
- DGAT2 expression, Vehicle vs. Niclosamide (Microarray) [1, 5]: −1.19
- ELOVL3 expression, Vehicle vs. Niclosamide (Microarray) [1, 5]: −1.66
- FA2H expression, Vehicle vs. Niclosamide (Microarray) [1, 5]: −1.57
- FAR2 expression, Vehicle vs. Niclosamide (Microarray) [1, 5]: −1.47
- FAXDC2 expression, Vehicle vs. Niclosamide (Microarray) [1, 5]: −1.29
- IFNGR2 expression, Vehicle vs. Niclosamide (Microarray) [1, 5]: 1.10
- IL1F10 expression, Vehicle vs. Niclosamide (Microarray) [1, 5]: −1.79
- IL4R expression, Vehicle vs. Niclosamide (Microarray) [1, 5]: 1.29
- IL26 expression, Vehicle vs. Niclosamide (Microarray) [1, 5]: 1.78
- KRT79 expression, Vehicle vs. Niclosamide (Microarray) [1, 5]: −2.00
- LCN2 expression, Vehicle vs. Niclosamide (Microarray) [1, 5]: 1.69
- PI 3 expression, Vehicle vs. Niclosamide (Microarray) [1, 5]: 1.87
- PNPLA3 expression, Vehicle vs. Niclosamide (Microarray) [1, 5]: −1.79
- PPARG expression, Vehicle vs. Niclosamide (Microarray) [1, 5]: −1.55
- S100A9 expression, Vehicle vs. Niclosamide (Microarray) [1, 5]: 1.88
- S100A12 expression, Vehicle vs. Niclosamide (Microarray) [1, 5]: 2.30
- SPTLC3 expression, Vehicle vs. Niclosamide (Microarray) [1, 5]: −1.30
- STAT1 expression, Vehicle vs. Niclosamide (Microarray) [1, 5]: 1.13
- STAT3 expression, Vehicle vs. Niclosamide (Microarray) [1, 5]: 1.16
- TNFSF4 expression, Vehicle vs. Niclosamide (Microarray) [1, 5]: 1.35
- ACER1 expression, Niclosamide vs Predose (Microarray) [1, 6]: 1.94
- ACOX2 expression, Niclosamide vs Predose (Microarray) [1, 6]: 1.40
- ACSL1 expression, Niclosamide vs Predose (Microarray) [1, 6]: 1.21
- ANXA6 expression, Niclosamide vs Predose (Microarray) [1, 6]: −1.24
- ANXA9 expression, Niclosamide vs Predose (Microarray) [1, 6]: 1.56
- CCL2 expression, Niclosamide vs Predose (Microarray) [1, 6]: −1.77
- CCL13 expression, Niclosamide vs Predose (Microarray) [1, 6]: −1.40
- CCL18 expression, Niclosamide vs Predose (Microarray) [1, 6]: −1.70
- CCL19 expression, Niclosamide vs Predose (Microarray) [1, 6]: −1.56
- CCL22 expression, Niclosamide vs Predose (Microarray) [1, 6]: −1.83
- CCR1 expression, Niclosamide vs Predose (Microarray) [1, 6]: −1.90
- CCR2 expression, Niclosamide vs Predose (Microarray) [1, 6]: −1.37
- CCR5 expression, Niclosamide vs Predose (Microarray) [1, 6]: −1.40
- CCR6 expression, Niclosamide vs Predose (Microarray) [1, 6]: −1.33
- CCR7 expression, Niclosamide vs Predose (Microarray) [1, 6]: −1.51
- CD2 expression, Niclosamide vs Predose (Microarray) [1, 6]: −1.56
- CD3D expression, Niclosamide vs Predose (Microarray) [1, 6]: −1.63
- CD3G expression, Niclosamide vs Predose (Microarray) [1, 6]: −1.62
- CD28 expression, Niclosamide vs Predose (Microarray) [1, 6]: −1.72
- CD86 expression, Niclosamide vs Predose (Microarray) [1, 6]: −1.60
- CDSN expression, Niclosamide vs Predose (Microarray) [1, 6]: 1.14
- CERS3 expression, Niclosamide vs Predose (Microarray) [1, 6]: 1.13
- CLDN1 expression, Niclosamide vs Predose (Microarray) [1, 6]: 1.17
- CLDN23 expression, Niclosamide vs Predose (Microarray) [1, 6]: 1.42
- CLN8 expression, Niclosamide vs Predose (Microarray) [1, 6]: 1.15
- CXCL1 expression, Niclosamide vs Predose (Microarray) [1, 6]: −2.83
- CXCL2 expression, Niclosamide vs Predose (Microarray) [1, 6]: −1.81
- DGAT2 expression, Niclosamide vs Predose (Microarray) [1, 6]: 1.33
- DHCR7 expression, Niclosamide vs Predose (Microarray) [1, 6]: 1.12
- ELOVL3 expression, Niclosamide vs Predose (Microarray) [1, 6]: 1.81
- EREG expression, Niclosamide vs Predose (Microarray) [1, 6]: 1.19
- FA2H expression, Niclosamide vs Predose (Microarray) [1, 6]: 1.50
- FAR2 expression, Niclosamide vs Predose (Microarray) [1, 6]: 1.48
- FAXDC2 expression, Niclosamide vs Predose (Microarray) [1, 6]: 1.46
- FLG expression, Niclosamide vs Predose (Microarray) [1, 6]: 1.17
- IFNGR2 expression, Niclosamide vs Predose (Microarray) [1, 6]: −1.13
- IL1F10 expression, Niclosamide vs Predose (Microarray) [1, 6]: 1.98
- IL2RA expression, Niclosamide vs Predose (Microarray) [1, 6]: −1.27
- IL4R expression, Niclosamide vs Predose (Microarray) [1, 6]: −1.80
- IL6R expression, Niclosamide vs Predose (Microarray) [1, 6]: −1.25
- IL7R expression, Niclosamide vs Predose (Microarray) [1, 6]: −1.58
- IL12RB2 expression, Niclosamide vs Predose (Microarray) [1, 6]: −1.21
- IL24 expression, Niclosamide vs Predose (Microarray) [1, 6]: −2.19
- IL37 expression, Niclosamide vs Predose (Microarray) [1, 6]: 1.69
- IRF1 expression, Niclosamide vs Predose (Microarray) [1, 6]: −1.37
- KRT23 expression, Niclosamide vs Predose (Microarray) [1, 6]: 1.26
- KRT77 expression, Niclosamide vs Predose (Microarray) [1, 6]: 1.43
- KRT79 expression, Niclosamide vs Predose (Microarray) [1, 6]: 1.91
- LCN2 expression, Niclosamide vs Predose (Microarray) [1, 6]: −1.62
- MMP12 expression, Niclosamide vs Predose (Microarray) [1, 6]: −2.81
- PI 3 expression, Niclosamide vs Predose (Microarray) [1, 6]: −3.13
- PNPLA3 expression, Niclosamide vs Predose (Microarray) [1, 6]: 1.91
- PPL expression, Niclosamide vs Predose (Microarray) [1, 6]: 1.06
- S100A7 expression, Niclosamide vs Predose (Microarray) [1, 6]: −1.17
- S100A8 expression, Niclosamide vs Predose (Microarray) [1, 6]: −1.45
- S100A9 expression, Niclosamide vs Predose (Microarray) [1, 6]: −2.81
- S100A12 expression, Niclosamide vs Predose (Microarray) [1, 6]: −3.62
- S100P expression, Niclosamide vs Predose (Microarray) [1, 6]: −1.35
- SCEL expression, Niclosamide vs Predose (Microarray) [1, 6]: 1.43
- SERPINB1 expression, Niclosamide vs Predose (Microarray) [1, 6]: −1.29
- SERPINB4 expression, Niclosamide vs Predose (Microarray) [1, 6]: −1.54
- SPTLC3 expression, Niclosamide vs Predose (Microarray) [1, 6]: 1.44
- STAT3 expression, Niclosamide vs Predose (Microarray) [1, 6]: −1.13
- TJP3 expression, Niclosamide vs Predose (Microarray) [1, 6]: 1.51
- TNFSF4 expression, Niclosamide vs Predose (Microarray) [1, 6]: −1.64
- skin thickness [2]: No differences
- inflammatory cells (dendritic cells: CD11c, FceR1 in epidermis, and Langerhans cells: langerin/CD207) [3, 7]: Significant reductions
- total amount of T cells (CD3) in dermis and epidermis [3, 7]: No significant change
- CD11c Dermis expression level ([3]; Day 22 compared to baseline, clinically correlated to TSS): significantly changed
